Source: article PMC7253177, “Gain of channel function and modified gating properties in TRPM3 mutants causing intellectual disability and epilepsy” (eLife, 2020)

Molecular target: T1, TRPM3 V990M mutant (Homo sapiens, UniProt Q9HCF6, V1015M)
T1 construct: expressed in transfected cells; host or cells: HEK293T
T1 sequence (Q9HCF6 1-1325 isoform Q9HCF6-10 V990M): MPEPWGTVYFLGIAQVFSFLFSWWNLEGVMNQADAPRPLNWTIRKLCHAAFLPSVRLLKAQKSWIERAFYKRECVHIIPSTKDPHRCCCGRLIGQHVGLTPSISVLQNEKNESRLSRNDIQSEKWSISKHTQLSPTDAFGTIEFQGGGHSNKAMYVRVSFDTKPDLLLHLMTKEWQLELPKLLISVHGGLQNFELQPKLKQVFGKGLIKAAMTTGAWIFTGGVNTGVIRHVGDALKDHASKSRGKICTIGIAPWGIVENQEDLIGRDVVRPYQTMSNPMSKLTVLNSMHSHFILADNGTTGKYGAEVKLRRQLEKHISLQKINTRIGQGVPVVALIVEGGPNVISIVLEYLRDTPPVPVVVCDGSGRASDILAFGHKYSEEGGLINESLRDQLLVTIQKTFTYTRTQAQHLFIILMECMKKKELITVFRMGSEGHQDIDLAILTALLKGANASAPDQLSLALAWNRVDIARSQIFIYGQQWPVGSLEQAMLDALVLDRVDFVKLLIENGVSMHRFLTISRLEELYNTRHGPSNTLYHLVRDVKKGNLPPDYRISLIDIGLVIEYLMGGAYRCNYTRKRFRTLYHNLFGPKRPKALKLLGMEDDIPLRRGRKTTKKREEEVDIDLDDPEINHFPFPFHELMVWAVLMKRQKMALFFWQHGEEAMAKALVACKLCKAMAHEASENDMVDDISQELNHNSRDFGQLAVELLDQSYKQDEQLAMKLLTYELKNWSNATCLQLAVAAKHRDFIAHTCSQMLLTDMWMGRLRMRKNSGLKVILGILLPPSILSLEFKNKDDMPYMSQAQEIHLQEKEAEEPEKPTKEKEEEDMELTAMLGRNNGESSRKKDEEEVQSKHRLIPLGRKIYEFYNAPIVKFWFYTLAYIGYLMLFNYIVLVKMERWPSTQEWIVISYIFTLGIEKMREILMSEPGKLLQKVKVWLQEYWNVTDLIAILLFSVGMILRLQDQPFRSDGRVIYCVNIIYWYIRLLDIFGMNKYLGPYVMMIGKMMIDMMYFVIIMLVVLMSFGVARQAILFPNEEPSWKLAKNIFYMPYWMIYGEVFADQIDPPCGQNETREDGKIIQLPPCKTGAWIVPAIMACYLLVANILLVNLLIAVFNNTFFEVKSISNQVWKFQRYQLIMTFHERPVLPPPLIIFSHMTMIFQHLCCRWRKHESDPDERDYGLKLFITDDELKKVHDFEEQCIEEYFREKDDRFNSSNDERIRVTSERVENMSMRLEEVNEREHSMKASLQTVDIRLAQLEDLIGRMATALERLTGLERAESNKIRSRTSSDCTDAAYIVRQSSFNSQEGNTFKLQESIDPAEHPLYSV
Test: Whole-cell patch clamp, HEK293T cells expressing V990M hTRPM3
Type: cell-based
Description: HEK293T cells ([Graham et al., 1977]) were cultured as described previously ([Vriens et al., 2007]) and used up in passage number 14. HEK293T cells were tested for the lack of mycoplasma and transiently transfected with 2 µg of DNA using TransIT transfection reagent (Mirus) 36–48 hr before the measurements. In case of co-cultures a ratio of 1:1 between hTRPM3-YFP WT and mutants-YFP DNA was used.
All mutants were obtained by the standard PCR overlap extension method using hTRPM3 directly linked to YFP from pCAGGS/IRES-GFP vector ([Vriens et al., 2007]). Accuracy of all mutant sequences was verified by sequencing of the entire DNA constructs.
Standard whole-cell patch-clamp recordings were performed with an EPC-10 amplifier and the PatchMasterPro Software (HEKA Elektronik, Lambrecht, Germany). Current measurements were performed at a sampling rate of 20 kHz and currents were digitally filtered at 2.9 kHz. In all measurements, 70% of the series resistance was compensated. The standard internal solution contained (in mM): 100 CsAsp, 45 CsCl, 10 EGTA, 10 HEPES, 1 MgCl2 (pH 7.2 with CsOH) or 140 potassium gluconate, 5 EGTA, 1 MgCl2, 10 HEPES and 2 NaATP (pH 7.3 with CsOH) for the measurements of Gβγ mediated inhibition and the standard extracellular solution contained (in mM): 150 NaCl, 1 MgCl2, 10 HEPES (pH 7.4 with NaOH). The standard patch pipette resistance was between 2 MΩ and 4 MΩ when filled with pipette solution. In experiments allowing Ca^2+-dependent desensitization of TRPM3, Mg^2+ was replaced by Ca^2+ in the extracellular solution, and Cs^+ was replaced by Na^+ in the pipette solution. […] The chemical ligands were dissolved in bath solution from a stock diluted in DMSO.

In the case of `Clc1ccccc1C(c1ccccc1)(c1ccccc1)n1ccnc1` [Clt, clotrimazole], the “Activation of whole-cell currents in the absence of PS” value (Clt 10 µM) is reported as “induced robust currents”.

For `CCC1(c2ccccc2)C(=O)NCNC1=O` [primidone], the “Block of PS-activated currents” value (primidone 25 µM, PS 40 µM, ±80 mV, cells co-expressing µ-opioid receptor) was ~ 50%.
